Where two headings read alike, the source gives them in different places.
Biological target: P2X7 (Homo sapiens (Human), UniProt Q99572)
Assay: P2X7 antagonism in human peripheral blood mononuclear cells (PBMCs), IL-1β release after LPS + Bz-ATP (ELISA)
Type: cell-based
Conditions: 0.5 mM Bz-ATP; for remaining activity at 10 µM: read-out: PBMC 10 μM (% control); for PBMC 10 μM (% control): Table 3 (additional runs)
Experimental: Human blood was collected using a blood donor program. […] Cells were incubated for an additional 1.5 hours. […] Data are analyzed and graphed on Graphpad Prism 5. […] The IC50 for each compound is then uploaded into 3DX.

[1] = P2X7, Table 3 (additional runs), 10 μM compound

Chain of P2X7 (Q99572 whole entry): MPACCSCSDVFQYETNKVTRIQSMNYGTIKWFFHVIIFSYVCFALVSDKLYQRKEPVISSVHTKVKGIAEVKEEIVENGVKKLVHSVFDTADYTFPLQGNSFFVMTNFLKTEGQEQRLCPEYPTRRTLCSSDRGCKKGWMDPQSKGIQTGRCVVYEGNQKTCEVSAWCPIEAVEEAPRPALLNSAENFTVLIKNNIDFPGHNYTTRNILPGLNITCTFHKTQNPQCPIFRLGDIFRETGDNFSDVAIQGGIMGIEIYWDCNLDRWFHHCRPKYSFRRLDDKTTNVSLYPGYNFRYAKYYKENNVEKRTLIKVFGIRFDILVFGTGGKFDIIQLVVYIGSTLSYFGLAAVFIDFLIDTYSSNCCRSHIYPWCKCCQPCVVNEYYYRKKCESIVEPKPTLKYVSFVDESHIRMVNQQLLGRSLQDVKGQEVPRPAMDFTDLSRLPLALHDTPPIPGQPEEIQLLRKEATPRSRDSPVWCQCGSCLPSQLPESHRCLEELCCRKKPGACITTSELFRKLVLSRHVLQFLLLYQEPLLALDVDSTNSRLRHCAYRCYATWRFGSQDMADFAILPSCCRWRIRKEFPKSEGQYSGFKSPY

SMILES	remaining activity at 10 µM (P2X7, Table 2, 10 μM compound) [%]	PBMC 10 μM (% control) (10 μM compound)	remaining activity at 10 µM [1] [%]
Cc1nc2c(c(-c3ccn[nH]3)n1)C[C@@H](C)N(C(=O)c1cccc(C(F)(F)F)c1C)C2 (single isomer, unassigned) [Example 78, (R*)-(2,6-dimethyl-4-(1H-pyrazol-5-yl)-5,6-dihydropyrido[3,4-d]pyrimidin-7(8H)-yl)(2-methyl-3-(trifluoromethyl)phenyl)methanone]	1.4	1.4	–
Cc1nc2c(c(-c3ccn[nH]3)n1)C[C@@H](C)N(C(=O)c1ccc(F)cc1F)C2 (single isomer, unassigned) [Example 94, (R*)-(2,4-difluorophenyl)(2,6-dimethyl-4-(1H-pyrazol-5-yl)-5,6-dihydropyrido[3,4-d]pyrimidin-7(8H)-yl)methanone]	71.8	–	–
Cc1nc2c(c(-c3ccn[nH]3)n1)C[C@H](C)N(C(=O)c1cccc(F)c1Cl)C2 (single isomer, unassigned) [Example 145, (S*)-(2-chloro-3-fluorophenyl)(2,6-dimethyl-4-(1H-pyrazol-5-yl)-5,6-dihydropyrido[3,4-d]pyrimidin-7(8H)-yl)methanone]	–	–	67.4
Cc1nc2c(c(-c3ccn[nH]3)n1)C[C@H](C)N(C(=O)c1ccc(Cl)cc1Cl)C2 (single isomer, unassigned) [Example 85, (S*)-(2,4-dichlorophenyl)(2,6-dimethyl-4-(1H-pyrazol-5-yl)-5,6-dihydropyrido[3,4-d]pyrimidin-7(8H)-yl)methanone]	-0.8	−0.8	–
C[C@H]1c2ncnc(-c3ccn[nH]3)c2CCN1C(=O)c1ccc(F)c(Cl)c1Cl (single isomer, unassigned) [Example 120, (S*)-(2,3-dichloro-4-fluorophenyl)(8-methyl-4-(1H-pyrazol-5-yl)-5,6-dihydropyrido[3,4-d]pyrimidin-7(8H)-yl)methanone]	2.9	2.9	–
CCc1nc2c(c(-c3ccn[nH]3)n1)C[C@@H](C)N(C(=O)c1cccc(C(F)(F)F)c1Cl)C2 (single isomer, unassigned) [Example 99, (R*)-(2-chloro-3-(trifluoromethyl)phenyl)(2-ethyl-6-methyl-4-(1H-pyrazol-5-yl)-5,6-dihydropyrido[3,4-d]pyrimidin-7(8H)-yl)methanone]	16.4	–	–
COCCn1ccc(-c2nc(C)nc3c2C[C@@H](C)N(C(=O)c2cccc(C(F)(F)F)c2Cl)C3)n1 (single isomer, unassigned) [Example 128, (R*)-(2-chloro-3-(trifluoromethyl)phenyl)(4-(1-(2-methoxyethyl)-1H-pyrazol-3-yl)-2,6-dimethyl-5,6-dihydropyrido[3,4-d]pyrimidin-7(8H)-yl)methanone]	7.3	7.3	–
Cc1nc2c(c(-c3ccn[nH]3)n1)C[C@@H](C)N(C(=O)c1ccc(F)c(Cl)c1Cl)C2 (single isomer, unassigned) [Example 81, (R*)-(2,3-dichloro-4-fluorophenyl)(2,6-dimethyl-4-(1H-pyrazol-5-yl)-5,6-dihydropyrido[3,4-d]pyrimidin-7(8H)-yl)methanone]	21	21.0	–
C[C@H]1c2ncnc(-c3ccn[nH]3)c2CCN1C(=O)c1ccc(F)c(C(F)(F)F)c1Cl (single isomer, unassigned) [Example 117, (S*)-(2-chloro-4-fluoro-3-(trifluoromethyl)phenyl)(8-methyl-4-(1H-pyrazol-5-yl)-5,6-dihydropyrido[3,4-d]pyrimidin-7(8H)-yl)methanone]	0.1	0.1	–
COc1cncc(C(=O)N2Cc3nc(C)nc(-c4ccn[nH]4)c3CC2C)c1 (stereo not shown) [Example 147, (2,6-dimethyl-4-(1H-pyrazol-5-yl)-5,6-dihydropyrido[3,4-d]pyrimidin-7(8H)-yl)(5-methoxypyridin-3-yl)methanone]	–	–	110
Cc1nc2c(c(-c3ccn[nH]3)n1)C[C@H](C)N(C(=O)c1cccc(OC(F)(F)F)c1)C2 (single isomer, unassigned) [Example 142, (S*)-(2,6-dimethyl-4-(1H-pyrazol-5-yl)-5,6-dihydropyrido[3,4-d]pyrimidin-7(8H)-yl)(3-(trifluoromethoxy)phenyl)methanone]	–	–	73.9
COCCn1ccc(-c2nc(C)nc3c2C[C@H](C)N(C(=O)c2cccc(C(F)(F)F)c2Cl)C3)n1 (single isomer, unassigned) [Example 127, (S*)-(2-chloro-3-(trifluoromethyl)phenyl)(4-(1-(2-methoxyethyl)-1H-pyrazol-3-yl)-2,6-dimethyl-5,6-dihydropyrido[3,4-d]pyrimidin-7(8H)-yl)methanone]	38.2	–	–
C[C@@H]1c2ncnc(-c3ccn[nH]3)c2CCN1C(=O)c1ccc(F)c(C(F)(F)F)c1Cl (single isomer, unassigned) [Example 116, (R*)-(2-chloro-4-fluoro-3-(trifluoromethyl)phenyl)(8-methyl-4-(1H-pyrazol-5-yl)-5,6-dihydropyrido[3,4-d]pyrimidin-7(8H)-yl)methanone]	-4.4	−4.4	–
CC(C)c1nc2c(c(-c3ccn[nH]3)n1)C[C@H](C)N(C(=O)c1cccc(C(F)(F)F)c1Cl)C2 (single isomer, unassigned) [Example 103, (S*)-(2-chloro-3-(trifluoromethyl)phenyl)(2-isopropyl-6-methyl-4-(1H-pyrazol-5-yl)-5,6-dihydropyrido[3,4-d]pyrimidin-7(8H)-yl)methanone]	6.3	6.3	–
Cc1nc2c(c(-c3ccn[nH]3)n1)C[C@@H](C)N(C(=O)c1ccc(F)c(C(F)(F)F)c1Cl)C2 (single isomer, unassigned) [Example 66, (R*)-(2-chloro-4-fluoro-3-(trifluoromethyl)phenyl)(2,6-dimethyl-4-(1H-pyrazol-5-yl)-5,6-dihydropyrido[3,4-d]pyrimidin-7(8H)-yl)methanone]	-6.1	−6.1	–
Cc1nc2c(c(-c3ccn[nH]3)n1)C[C@@H](C)N(C(=O)c1cccc(C(F)(F)F)c1F)C2 (single isomer, unassigned) [Example 75, (R*)-(2,6-dimethyl-4-(1H-pyrazol-5-yl)-5,6-dihydropyrido[3,4-d]pyrimidin-7(8H)-yl)(2-fluoro-3-(trifluoromethyl)phenyl)methanone]	2.4	2.4	–
C[C@@H]1c2ncnc(-c3ccn[nH]3)c2CCN1C(=O)c1ccc(F)c(Cl)c1Cl (single isomer, unassigned) [Example 119, (R*)-(2,3-dichloro-4-fluorophenyl)(8-methyl-4-(1H-pyrazol-5-yl)-5,6-dihydropyrido[3,4-d]pyrimidin-7(8H)-yl)methanone]	-1.5	−1.5	–
C[C@H]1c2ncnc(-c3ccn[nH]3)c2CCN1C(=O)c1cccc(C(F)(F)F)c1Cl (single isomer, unassigned) [Example 114, (S*)-(2-chloro-3-(trifluoromethyl)phenyl)(8-methyl-4-(1H-pyrazol-5-yl)-5,6-dihydropyrido[3,4-d]pyrimidin-7(8H)-yl)methanone]	-0.5	−0.5	–
C[C@H]1c2ncnc(-c3ccn[nH]3)c2CCN1C(=O)c1ccc(Cl)c(F)c1Cl (single isomer, unassigned) [Example 123, (S*)-(2,4-dichloro-3-fluorophenyl)(8-methyl-4-(1H-pyrazol-5-yl)-5,6-dihydropyrido[3,4-d]pyrimidin-7(8H)-yl)methanone]	13.3	–	–
Cc1nc2c(c(-c3ccn[nH]3)n1)C[C@H](C)N(C(=O)c1cccc(C(F)(F)F)c1C)C2 (single isomer, unassigned) [Example 79, (S*)-(2,6-dimethyl-4-(1H-pyrazol-5-yl)-5,6-dihydropyrido[3,4-d]pyrimidin-7(8H)-yl)(2-methyl-3-(trifluoromethyl)phenyl)methanone]	2.6	2.6	–
Cc1nc2c(c(-c3ccn[nH]3)n1)C[C@@H](C)N(C(=O)c1ccc(F)cc1Cl)C2 (single isomer, unassigned) [Example 91, (R*)-(2-chloro-4-fluorophenyl)(2,6-dimethyl-4-(1H-pyrazol-5-yl)-5,6-dihydropyrido[3,4-d]pyrimidin-7(8H)-yl)methanone]	-8.8	−8.8	–
Cc1nc2c(c(-c3ccn[nH]3)n1)C[C@@H](C)N(C(=O)c1ccc(Cl)cc1F)C2 (single isomer, unassigned) [Example 88, (R*)-(4-chloro-2-fluorophenyl)(2,6-dimethyl-4-(1H-pyrazol-5-yl)-5,6-dihydropyrido[3,4-d]pyrimidin-7(8H)-yl)methanone]	49.4	–	–
Cc1nc2c(c(-c3ccn[nH]3)n1)C[C@@H](C)N(C(=O)c1ccc(Cl)c(F)c1Cl)C2 [Example 71, (R)-(2,4-dichloro-3-fluorophenyl)(2,6-dimethyl-4-(1H-pyrazol-5-yl)-5,6-dihydropyrido[3,4-d]pyrimidin-7(8H)-yl)methanone]	-4.1	−4.1	–
C[C@@H]1c2ncnc(-c3ccn[nH]3)c2CCN1C(=O)c1ccc(Cl)c(F)c1Cl (single isomer, unassigned) [Example 122, (R*)-(2,4-dichloro-3-fluorophenyl)(8-methyl-4-(1H-pyrazol-5-yl)-5,6-dihydropyrido[3,4-d]pyrimidin-7(8H)-yl)methanone]	4.1	4.1	–

Source: patent publication US9604982B2, “P2X7 modulators” (Janssen Pharmaceutica NV, priority 2013, dated 2017)
